Experimental data published in patent US20240408086A1, “USE OF LUVADAXISTAT FOR THE TREATMENT OF COGNITIVE IMPAIRMENT” (TAKEDA PHARMACEUTICAL COMPANY LIMITED, priority 2021, published 2024).
Where two headings read alike, the source gives them in different places.

System: adult patients with persistent negative symptoms of schizophrenia
Type: in vivo, human
From the text: To assess changes in cognitive impairment associated with schizophrenia (CIAS), secondary endpoints included the 12-week change from baseline in the Brief Assessment of Cognition in Schizophrenia (BACS) composite score, a measure of cognition across multiple domains, and the Schizophrenia Cognition Rating Scale (SCORS) score, a measure of day-to-day cognitive functioning requiring input from an adult informant. Secondary endpoints were not corrected for multiplicity.
The BACS is specifically designed to measure treatment-related improvements in cognition and includes alternate forms. BACS is a reliable and sensitive measure of cognitive function in schizophrenia. The BACS is a cognition assessment battery that assesses 6 domains of cognitive function found to be consistently impaired in schizophrenia: verbal memory; working memory; motor speed; attention; executive functions; and verbal fluency. The primary measure from each test of the BACS is standardized by creating T-scores whereby the mean of the test session of a matched reference healthy participant is set to 50 and the standard deviation set to 10.

[1] = 125 mg once daily, preliminary analysis
[2] = 500 mg once daily, MMRM, preliminary analysis
[3] = 500 mg once daily, preliminary analysis

## O=c1[nH]nc(CCc2ccc(C(F)(F)F)cc2)cc1O [Compound (I), luvadaxistat]
[1]
  BACS Working Memory Cognition Domain, Change from Baseline to Week 6, Median: 2.0
  BACS Working Memory Cognition Domain, Change from Baseline to Week 12, Mean (SD): 1.8 (7.40)
  BACS Working Memory Cognition Domain, Change from Baseline to Week 12, Median: 0.0
  BACS Working Memory Cognition Domain, Week 6, Mean (SD): 41.0 (11.17)
  BACS Working Memory Cognition Domain, Week 6, Median: 41.0
  BACS Working Memory Cognition Domain, Week 12, Mean (SD): 41.7 (13.58)
  BACS Working Memory Cognition Domain, Week 12, Median: 40.0
125 mg
  BACS Attention Cognition Domain, Change from Baseline to Week 6, Mean (SD): 2.2 (6.07)
  BACS Attention Cognition Domain, Change from Baseline to Week 6, Median: 2.0
  BACS Attention Cognition Domain, Week 6, Mean (SD): 36.7 (12.72)
  BACS Attention Cognition Domain, Week 6, Median: 37.0
  BACS Executive Functions Cognition Domain, Change from Baseline to Week 6, Mean (SD): 0.8 (9.01)
  BACS Executive Functions Cognition Domain, Change from Baseline to Week 6, Median: 0.0
  BACS Executive Functions Cognition Domain, Week 6, Mean (SD): 46.3 (16.06)
  BACS Executive Functions Cognition Domain, Week 6, Median: 50.0
  BACS Verbal Fluency Cognition Domain, Change from Baseline to Week 6, Mean (SD): 0.8 (4.53)
  BACS Verbal Fluency Cognition Domain, Change from Baseline to Week 6, Median: 1.0
  BACS Verbal Fluency Cognition Domain, Week 6, Mean (SD): 39.1 (8.98)
  BACS Verbal Fluency Cognition Domain, Week 6, Median: 40.0
  BACS Attention Cognition Domain, Change from Baseline to Week 12, Mean (SD): 1.2 (6.41)
  BACS Attention Cognition Domain, Change from Baseline to Week 12, Median: 2.0
  BACS Attention Cognition Domain, Week 12, Mean (SD): 36.2 (12.21)
  BACS Attention Cognition Domain, Week 12, Median: 36.0
  BACS Executive Functions Cognition Domain, Change from Baseline to Week 12, Mean (SD): 2.0 (8.79)
  BACS Executive Functions Cognition Domain, Change from Baseline to Week 12, Median: 3.0
  BACS Executive Functions Cognition Domain, Week 12, Mean (SD): 47.6 (13.17)
  BACS Executive Functions Cognition Domain, Week 12, Median: 51.0
  BACS Verbal Fluency Cognition Domain, Change from Baseline to Week 12, Mean (SD): 2.1 (5.59)
  BACS Verbal Fluency Cognition Domain, Change from Baseline to Week 12, Median: 2.0
  BACS Verbal Fluency Cognition Domain, Week 12, Mean (SD): 40.6 (9.54)
  BACS Verbal Fluency Cognition Domain, Week 12, Median: 39.0
125 mg, MMRM
  BACS Attention Cognition Domain, Adjusted Change from Baseline to Week 6, LS Mean (SE): 2.2 (0.88)
  BACS Attention Cognition Domain, Difference from Placebo for Week 6, LS Mean (SE): 1.2 (1.12)
  BACS Executive Functions Cognition Domain, Adjusted Change from Baseline to Week 6, LS Mean (SE): 0.8 (1.19)
  BACS Executive Functions Cognition Domain, Difference from Placebo for Week 6, LS Mean (SE): 2.0 (1.53)
  BACS Verbal Fluency Cognition Domain, Adjusted Change from Baseline to Week 6, LS Mean (SE): 0.7 (0.68)
  BACS Verbal Fluency Cognition Domain, Difference from Placebo for Week 6, LS Mean (SE): 0.6 (0.87)
  BACS Attention Cognition Domain, Adjusted Change from Baseline to Week 12, LS Mean (SE): 1.4 (1.01)
  BACS Attention Cognition Domain, Difference from Placebo for Week 12, LS Mean (SE): −0.5 (1.29)
  BACS Executive Functions Cognition Domain, Adjusted Change from Baseline to Week 12, LS Mean (SE): 2.0 (1.09)
  BACS Executive Functions Cognition Domain, Difference from Placebo for Week 12, LS Mean (SE): 1.4 (1.38)
  BACS Verbal Fluency Cognition Domain, Adjusted Change from Baseline to Week 12, LS Mean (SE): 1.9 (0.84)
  BACS Verbal Fluency Cognition Domain, Difference from Placebo for Week 12, LS Mean (SE): 0.9 (1.07)
500 mg once daily, MMRM, one-sided unadjusted p 0.070, preliminary analysis
  BACS Verbal Memory Cognition Domain, Difference from Placebo for Week 6, LS Mean (SE): 2.0 (1.33)
500 mg once daily, MMRM, one-sided unadjusted p 0.194, preliminary analysis
  BACS Composite Score, Difference from Placebo for Week 6, LS Mean (SE): 0.9 (1.04)
500 mg once daily, MMRM, one-sided unadjusted p 0.260, preliminary analysis
  BACS Composite Score, Difference from Placebo for Week 12, LS Mean (SE): 0.8 (1.20)
500 mg once daily, MMRM, one-sided unadjusted p 0.329, preliminary analysis
  BACS Verbal Memory Cognition Domain, Difference from Placebo for Week 12, LS Mean (SE): 0.7 (1.49)
500 mg once daily, MMRM, one-sided unadjusted p 0.405, preliminary analysis
  BACS Motor Speed Cognition Domain, Difference from Placebo for Week 12, LS Mean (SE): 0.3 (1.22)
500 mg once daily, MMRM, one-sided unadjusted p 0.637, preliminary analysis
  BACS Working Memory Cognition Domain, Difference from Placebo for Week 12, LS Mean (SE): −0.5 (1.40)
500 mg once daily, MMRM, one-sided unadjusted p 0.788, preliminary analysis
  BACS Working Memory Cognition Domain, Difference from Placebo for Week 6, LS Mean (SE): −0.9 (1.19)
500 mg once daily, MMRM, one-sided unadjusted p 0.812, preliminary analysis
  BACS Motor Speed Cognition Domain, Difference from Placebo for Week 6, LS Mean (SE): −1.1 (1.30)
[2]
  BACS Composite Score, Adjusted Change from Baseline to Week 6, LS Mean (SE): 0.5 (0.87)
  BACS Composite Score, Adjusted Change from Baseline to Week 12, LS Mean (SE): 1.5 (0.99)
  BACS Motor Speed Cognition Domain, Adjusted Change from Baseline to Week 6, LS Mean (SE): −1.3 (1.07)
  BACS Motor Speed Cognition Domain, Adjusted Change from Baseline to Week 12, LS Mean (SE): −0.2 (1.02)
  BACS Verbal Memory Cognition Domain, Adjusted Change from Baseline to Week 6, LS Mean (SE): 0.7 (1.11)
  BACS Verbal Memory Cognition Domain, Adjusted Change from Baseline to Week 12, LS Mean (SE): 0.0 (1.23)
  BACS Working Memory Cognition Domain, Adjusted Change from Baseline to Week 6, LS Mean (SE): −0.9 (0.98)
  BACS Working Memory Cognition Domain, Adjusted Change from Baseline to Week 12, LS Mean (SE): 0.2 (1.15)
[3]
  BACS Composite Score, Change from Baseline to Week 6, Mean (SD): 1.5 (7.57)
  BACS Composite Score, Change from Baseline to Week 6, Median: 1.0
  BACS Composite Score, Change from Baseline to Week 12, Mean (SD): 3.0 (7.98)
  BACS Composite Score, Change from Baseline to Week 12, Median: 3.0
  BACS Composite Score, Week 6, Mean (SD): 35.6 (13.84)
  BACS Composite Score, Week 6, Median: 38.0
  BACS Composite Score, Week 12, Mean (SD): 37.6 (13.86)
  BACS Composite Score, Week 12, Median: 40.0
  BACS Motor Speed Cognition Domain, Change from Baseline to Week 6, Mean (SD): 0.5 (9.53)
  BACS Motor Speed Cognition Domain, Change from Baseline to Week 6, Median: 2.0
  BACS Motor Speed Cognition Domain, Change from Baseline to Week 12, Mean (SD): 2.0 (6.58)
  BACS Motor Speed Cognition Domain, Change from Baseline to Week 12, Median: 2.0
  BACS Motor Speed Cognition Domain, Week 6, Mean (SD): 40.7 (12.38)
  BACS Motor Speed Cognition Domain, Week 6, Median: 41.0
  BACS Motor Speed Cognition Domain, Week 12, Mean (SD): 41.3 (11.31)
  BACS Motor Speed Cognition Domain, Week 12, Median: 40.0
  BACS Verbal Memory Cognition Domain, Change from Baseline to Week 6, Mean (SD): 1.8 (8.65)
  BACS Verbal Memory Cognition Domain, Change from Baseline to Week 6, Median: 2.0
  BACS Verbal Memory Cognition Domain, Change from Baseline to Week 12, Mean (SD): 1.6 (10.04)
  BACS Verbal Memory Cognition Domain, Change from Baseline to Week 12, Median: 0.0
  BACS Verbal Memory Cognition Domain, Week 6, Mean (SD): 42.1 (12.06)
  BACS Verbal Memory Cognition Domain, Week 6, Median: 42.0
  BACS Verbal Memory Cognition Domain, Week 12, Mean (SD): 41.8 (13.82)
  BACS Verbal Memory Cognition Domain, Week 12, Median: 41.0
  BACS Working Memory Cognition Domain, Change from Baseline to Week 6, Mean (SD): 0.5 (7.99)
  BACS Working Memory Cognition Domain, Change from Baseline to Week 6, Median: 0.0
  BACS Working Memory Cognition Domain, Change from Baseline to Week 12, Mean (SD): 1.7 (7.39)
  BACS Working Memory Cognition Domain, Change from Baseline to Week 12, Median: 0.0
  BACS Working Memory Cognition Domain, Week 6, Mean (SD): 40.1 (13.75)
  BACS Working Memory Cognition Domain, Week 6, Median: 43.0
  BACS Working Memory Cognition Domain, Week 12, Mean (SD): 42.6 (13.20)
  BACS Working Memory Cognition Domain, Week 12, Median: 45.0
500 mg
  BACS Attention Cognition Domain, Change from Baseline to Week 6, Mean (SD): 0.9 (6.26)
  BACS Attention Cognition Domain, Change from Baseline to Week 6, Median: 0.0
  BACS Attention Cognition Domain, Week 6, Mean (SD): 35.5 (12.68)
  BACS Attention Cognition Domain, Week 6, Median: 35.0
  BACS Executive Functions Cognition Domain, Change from Baseline to Week 6, Mean (SD): 1.3 (7.62)
  BACS Executive Functions Cognition Domain, Change from Baseline to Week 6, Median: 0.0
  BACS Executive Functions Cognition Domain, Week 6, Mean (SD): 47.0 (10.95)
  BACS Executive Functions Cognition Domain, Week 6, Median: 51.0
  BACS Verbal Fluency Cognition Domain, Change from Baseline to Week 6, Mean (SD): 0.8 (5.87)
  BACS Verbal Fluency Cognition Domain, Change from Baseline to Week 6, Median: 1.0
  BACS Verbal Fluency Cognition Domain, Week 6, Mean (SD): 39.6 (10.14)
  BACS Verbal Fluency Cognition Domain, Week 6, Median: 40.0
  BACS Attention Cognition Domain, Change from Baseline to Week 12, Mean (SD): 3.1 (9.31)
  BACS Attention Cognition Domain, Change from Baseline to Week 12, Median: 2.0
  BACS Attention Cognition Domain, Week 12, Mean (SD): 38.0 (14.08)
  BACS Attention Cognition Domain, Week 12, Median: 36.0
  BACS Executive Functions Cognition Domain, Change from Baseline to Week 12, Mean (SD): 2.0 (9.28)
  BACS Executive Functions Cognition Domain, Change from Baseline to Week 12, Median: 0.0
  BACS Executive Functions Cognition Domain, Week 12, Mean (SD): 48.5 (11.88)
  BACS Executive Functions Cognition Domain, Week 12, Median: 51.0
  BACS Verbal Fluency Cognition Domain, Change from Baseline to Week 12, Mean (SD): 1.3 (6.95)
  BACS Verbal Fluency Cognition Domain, Change from Baseline to Week 12, Median: 0.0
  BACS Verbal Fluency Cognition Domain, Week 12, Mean (SD): 40.6 (10.30)
  BACS Verbal Fluency Cognition Domain, Week 12, Median: 40.0
500 mg, MMRM
  BACS Attention Cognition Domain, Adjusted Change from Baseline to Week 6, LS Mean (SE): 1.0 (0.96)
  BACS Attention Cognition Domain, Difference from Placebo for Week 6, LS Mean (SE): 0.0 (1.15)
  BACS Executive Functions Cognition Domain, Adjusted Change from Baseline to Week 6, LS Mean (SE): 1.1 (1.29)
  BACS Executive Functions Cognition Domain, Difference from Placebo for Week 6, LS Mean (SE): 2.3 (1.57)
  BACS Verbal Fluency Cognition Domain, Adjusted Change from Baseline to Week 6, LS Mean (SE): 0.5 (0.74)
  BACS Verbal Fluency Cognition Domain, Difference from Placebo for Week 6, LS Mean (SE): 0.3 (0.89)
  BACS Attention Cognition Domain, Adjusted Change from Baseline to Week 12, LS Mean (SE): 3.1 (1.09)
  BACS Attention Cognition Domain, Difference from Placebo for Week 12, LS Mean (SE): 1.2 (1.33)
  BACS Executive Functions Cognition Domain, Adjusted Change from Baseline to Week 12, LS Mean (SE): 2.0 (1.19)
  BACS Executive Functions Cognition Domain, Difference from Placebo for Week 12, LS Mean (SE): 1.4 (1.42)
  BACS Verbal Fluency Cognition Domain, Adjusted Change from Baseline to Week 12, LS Mean (SE): 0.5 (0.91)
  BACS Verbal Fluency Cognition Domain, Difference from Placebo for Week 12, LS Mean (SE): −0.5 (1.11)
